Read-outs that look alike come from different tables or passages of the source. Each block holds one compound with its values, some of them ahead of it.
What was measured:
[1] = Pharmacokinetic study in mice; assay type: in vivo; settings: male CD1 mice
Procedure: Objective: The objective of this study was to determine the pharmacokinetics of test compound following a single intravenous (IV) bolus dose and a single oral (PO) administration in male CD1 mice by quantifying the concentrations of the test compound at different times in plasma using LC/MS/MS method.
Materials: Male CD1 mouse (20-30 g, 6-8 weeks, Zhejiang Vital River Laboratory Animal Technology Co., Ltd.).
The clear solution of the test article was injected into CD1 mice via tail vein (free access to food and water), or orally administrated into CD1 mice (free access to food and water). After administration, blood was collected from the dorsal metatarsal vein at 5 min (0.0833 h, IV only), 15 min (0.25 h), 30 min (0.5 h), 60 min (1 h), 2 h, 4 h, 6 h, 8 h and 24 h. Blood samples were placed in an anticoagulant tube with EDTA-K2 at 4° C., mixed adequately and centrifuged at 4000 g for 5 min to get the plasma. The plasma concentration was quantified by LC-MS/MS. The PK parameters were calculated using non-compartmental model by Phoenix WinNonlin 6.1 (Linear/log trapezoidal).

HiBiT-tagged IKZF1 [2] = target: T1, HiBiT-tagged IKZF1 (Homo sapiens, UniProt Q13422+Q96SW2); test: IKZF1 protein degradation kinetics (IKZF1 HiBiT degradation assay, incubation 1, 2 or 4 hours); assay type: cell-based
T1 construct: expressed in transfected cells; host or cells: HT-1080 (ATCC CCL-121), lentiviral transduction
Excerpt: The following is a general method for testing compounds-induced degradation of HiBiT-tagged IKZF1 or SALL4 overexpressed in a human cell line, for example, the HT-1080 cell line (American Type Culture Collection (ATCC), catalog number CCL-121). The HT-1080 IKZF1 (or SALL4) HiBiT reporter cell line was engineered via lentiviral transduction to stably overexpress GSPT1 (Δ1-138)/G575N and HiBiT-tagged IKZF1 or SALL4. The HT-1080 IKZF1 (or SALL4) HiBiT reporter cell line was maintained in DMEM media supplemented with 10% fetal bovine serum, IX sodium pyruvate, 1× non-essential amino acids, IX glutamine, 100 U/ml penicillin, and 100 μg/mL streptomycin. The HT-1080 IKZF1 (or SALL4) HiBiT reporter cells were seeded into 384-well plates (Cat #3764, Corning) pre-spotted with DMSO or test compounds. Increasing concentrations of test compounds (ranging from 15.81 pM to 500 nM or from 0.3162 nM to 10 μM at a 3.162-fold increment) or DMSO were dispensed into an empty 384-well plate using an Echo 650 Acoustic Liquid Handler (Beckman Coulter). About 10,000 cells in complete DMEM cell culture media were seeded per well. Assay plates were incubated at 37° C. with 5% CO2 for hours, followed by the assessment of IKZF1 or SALL4 degradation using the Nano-Glo HiBiT Lytic Detection Reagent (Cat #N3050, Promega) according to the manufacturer's instruction. Luminescence was then measured with an EnVision plate reader (PerkinElmer) or a PHERAstar plate reader (BMG Labtech). All IKZF1 or SALL4 degradation curves were processed using Collaborative Drug Discovery Vault softwares. IKZF1 or SALL4 levels in compound-treated wells were normalized to that of DMSO control and expressed as Percent of Control (PoC, y). A four Parameter Logistic Model was used to determine the compound's EC50 and DC50, using the following equation: […]
The IKZF1 protein degradation kinetics of compounds 9-B and 9-A was evaluated using the IKZF1 HiBiT degradation assay as described above except that the incubation time was changed to 1, 2 or 4 hours.

HiBiT-tagged IKZF1 [3] = target: T1, HiBiT-tagged IKZF1; test: Degradation assay for IKZF1 (HiBiT tag bioluminescence assay); assay type: cell-based; settings: HT-1080 IKZF1 HiBiT reporter cells; for DC50: read-out: HiBiT IKZF1: DC50
Procedure: (§1) About 10,000 cells in complete DMEM cell culture media were seeded per well. Assay plates were incubated at 37° C. with 5% CO2 for hours, followed by the assessment of IKZF1 or SALL4 degradation using the Nano-Glo HiBiT Lytic Detection Reagent (Cat #N3050, Promega) according to the manufacturer's instruction. Luminescence was then measured with an EnVision plate reader (PerkinElmer) or a PHERAstar plate reader (BMG Labtech). All IKZF1 or SALL4 degradation curves were processed using Collaborative Drug Discovery Vault softwares. IKZF1 or SALL4 levels in compound-treated wells were normalized to that of DMSO control and expressed as Percent of Control (PoC, y). A four Parameter Logistic Model was used to determine the compound's EC50 and DC50, using the following equation:
(§2) A=Ymin (lowest IKZF1 or SALL4 level normalized to DMSO control in response to compound treatment, as determined by curve fit)
(§3) B=Ymax (IKZF1 or SALL4 level in DMSO control)
(§4) C=EC50 half degradation concentration
(§5) EC50=the concentration of compound when y=(Ymax−Ymin)/2
(§6) DC50=test sample concentration when IKZF1 or SALL4 readings y=50% DMSO-treated samples
(§7) y=IKZF1 or SALL4 readings after test sample treatment (normalized to IKZF1 or SALL4 readings in DMSO-treated samples)
(§8) Dmax represents the maximum percentage of IKZF1 or SALL4 protein degradation induced by compound treatment.

MM.1S cells = test: MM.1S cell proliferation assay (CellTiter-Glo); assay type: cell-based; settings: for IC50: Homo sapiens, MM1.S, read-out: MM.1S: IC50; for Ymin: lowest cell viability read normalized to DMSO control, MM.1S, 120 hours
Procedure: About 3,000 cells in 50 μL of culture medium were seeded per well. Assay plates were incubated at 37° C. with 5% CO2 for 120 hours. After that, 20 μL of the CellTiter-Glo Luminescent Cell Viability Assay Reagent (Cat #G7573, Promega) was added to each well and incubated at room temperature for 30 minutes. Luminescence was then measured with an EnVision plate reader (PerkinElmer) or a PHERAstar plate reader (BMG LABTECH). All percentage of cell growth inhibition curves were processed using Collaborative Drug Discovery Vault softwares. Cell viability reads in compound-treated wells were normalized to that of DMSO control and expressed as Percent of Control (PoC, y). A four Parameter Logistic Model was used to determine the compound's EC50 and DC50, using the following equation:
[formula] • wherein, • A=Ymin (lowest cell viability read normalized to DMSO control in response to compound treatment, as determined by curve fit) • B=Ymax (the maximum value, cell viability read in DMSO control) • C=EC50 half inhibitory concentration • D=Hill Slope • x=compound concentration
as §5
y=cell viability read normalized to DMSO control

HiBiT-tagged SALL4 = target: T2, HiBiT-tagged SALL4 (Homo sapiens, UniProt Q96SW2+Q9UJQ4); test: Degradation assay for SALL4 (HiBiT tag bioluminescence assay); assay type: cell-based; settings: HT-1080 SALL4 HiBiT reporter cells; for DC50: read-out: HiBiT SALL4: DC50
T2 construct: expressed in transfected cells; host or cells: HT-1080 (ATCC CCL-121), lentiviral transduction
Procedure: as §1, §2, §3, §4, §5, §6, §7, §8

[4] = mouse, Table 5, PO (10 mg/kg), plasma
[5] = after 1 hour of compound incubation
[6] = HT-1080, Table 1, maximum percentage of protein degradation
[7] = HT-1080, Table 2, all compounds tested on the same day
[8] = Table 1, performed once with technical duplicates, some compounds tested on different days
[9] = Table 2, all compounds tested on the same day
[10] = antiproliferative, 120 hours incubation, CellTiter-Glo
[11] = Table 1, maximum percentage of protein degradation
[12] = mouse, Table 4, PO (10 mg/kg), plasma

T1 sequence (Q13422 whole entry): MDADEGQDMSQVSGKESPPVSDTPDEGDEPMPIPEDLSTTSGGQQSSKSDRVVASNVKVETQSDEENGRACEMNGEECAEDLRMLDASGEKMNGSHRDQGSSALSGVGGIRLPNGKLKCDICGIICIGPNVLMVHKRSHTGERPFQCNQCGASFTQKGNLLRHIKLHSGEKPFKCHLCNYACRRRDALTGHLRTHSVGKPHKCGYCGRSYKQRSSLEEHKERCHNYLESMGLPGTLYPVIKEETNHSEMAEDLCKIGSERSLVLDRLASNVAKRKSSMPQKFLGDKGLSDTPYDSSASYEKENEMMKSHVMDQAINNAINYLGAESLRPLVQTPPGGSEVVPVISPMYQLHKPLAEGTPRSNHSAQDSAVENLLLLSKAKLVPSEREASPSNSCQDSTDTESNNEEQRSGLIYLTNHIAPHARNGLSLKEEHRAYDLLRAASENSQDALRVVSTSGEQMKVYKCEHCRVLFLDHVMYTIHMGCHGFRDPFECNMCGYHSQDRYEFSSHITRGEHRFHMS
T1 sequence (Q96SW2 whole entry): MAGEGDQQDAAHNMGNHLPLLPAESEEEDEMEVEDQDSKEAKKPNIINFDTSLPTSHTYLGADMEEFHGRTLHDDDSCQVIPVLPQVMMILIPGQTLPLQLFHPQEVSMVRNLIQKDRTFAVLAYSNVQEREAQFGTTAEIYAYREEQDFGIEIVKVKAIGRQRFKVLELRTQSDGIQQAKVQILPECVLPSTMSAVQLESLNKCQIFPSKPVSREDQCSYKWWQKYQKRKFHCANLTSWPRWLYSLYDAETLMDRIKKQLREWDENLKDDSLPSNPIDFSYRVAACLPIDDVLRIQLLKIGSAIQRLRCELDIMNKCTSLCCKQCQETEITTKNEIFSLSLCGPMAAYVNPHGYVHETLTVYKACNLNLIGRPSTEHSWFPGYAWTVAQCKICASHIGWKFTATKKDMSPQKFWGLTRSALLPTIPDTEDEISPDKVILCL
T1 sequence (Q16531 whole entry partner): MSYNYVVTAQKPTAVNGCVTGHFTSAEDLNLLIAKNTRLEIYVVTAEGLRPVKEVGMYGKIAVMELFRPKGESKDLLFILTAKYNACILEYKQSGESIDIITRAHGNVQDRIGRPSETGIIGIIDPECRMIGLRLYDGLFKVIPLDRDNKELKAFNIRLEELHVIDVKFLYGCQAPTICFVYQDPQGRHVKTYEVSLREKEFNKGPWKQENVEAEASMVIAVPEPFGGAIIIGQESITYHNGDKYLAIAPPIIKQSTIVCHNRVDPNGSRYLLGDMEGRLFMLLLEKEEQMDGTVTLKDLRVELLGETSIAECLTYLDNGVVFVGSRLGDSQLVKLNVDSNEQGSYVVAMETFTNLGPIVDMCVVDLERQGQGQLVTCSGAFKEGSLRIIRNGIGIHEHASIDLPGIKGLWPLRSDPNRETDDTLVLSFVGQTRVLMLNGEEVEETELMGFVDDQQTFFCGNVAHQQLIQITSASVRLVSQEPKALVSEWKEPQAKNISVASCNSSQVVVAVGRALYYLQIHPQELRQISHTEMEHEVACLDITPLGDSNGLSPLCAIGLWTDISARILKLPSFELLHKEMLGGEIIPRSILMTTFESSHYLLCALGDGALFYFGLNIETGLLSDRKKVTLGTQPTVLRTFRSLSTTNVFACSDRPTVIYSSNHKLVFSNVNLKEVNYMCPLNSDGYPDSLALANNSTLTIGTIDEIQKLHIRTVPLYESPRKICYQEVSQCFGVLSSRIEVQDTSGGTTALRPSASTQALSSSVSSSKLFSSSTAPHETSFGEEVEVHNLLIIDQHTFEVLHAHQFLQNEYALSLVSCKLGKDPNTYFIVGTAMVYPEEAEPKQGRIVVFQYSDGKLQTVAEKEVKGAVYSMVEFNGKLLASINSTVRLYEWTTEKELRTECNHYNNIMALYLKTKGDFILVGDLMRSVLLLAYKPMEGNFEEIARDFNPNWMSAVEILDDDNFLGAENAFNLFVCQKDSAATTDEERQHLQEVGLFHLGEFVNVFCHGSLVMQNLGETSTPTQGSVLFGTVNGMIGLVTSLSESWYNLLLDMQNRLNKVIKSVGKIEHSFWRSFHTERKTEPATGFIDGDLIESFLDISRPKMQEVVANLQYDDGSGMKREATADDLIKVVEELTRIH
T2 sequence (Q9UJQ4 whole entry): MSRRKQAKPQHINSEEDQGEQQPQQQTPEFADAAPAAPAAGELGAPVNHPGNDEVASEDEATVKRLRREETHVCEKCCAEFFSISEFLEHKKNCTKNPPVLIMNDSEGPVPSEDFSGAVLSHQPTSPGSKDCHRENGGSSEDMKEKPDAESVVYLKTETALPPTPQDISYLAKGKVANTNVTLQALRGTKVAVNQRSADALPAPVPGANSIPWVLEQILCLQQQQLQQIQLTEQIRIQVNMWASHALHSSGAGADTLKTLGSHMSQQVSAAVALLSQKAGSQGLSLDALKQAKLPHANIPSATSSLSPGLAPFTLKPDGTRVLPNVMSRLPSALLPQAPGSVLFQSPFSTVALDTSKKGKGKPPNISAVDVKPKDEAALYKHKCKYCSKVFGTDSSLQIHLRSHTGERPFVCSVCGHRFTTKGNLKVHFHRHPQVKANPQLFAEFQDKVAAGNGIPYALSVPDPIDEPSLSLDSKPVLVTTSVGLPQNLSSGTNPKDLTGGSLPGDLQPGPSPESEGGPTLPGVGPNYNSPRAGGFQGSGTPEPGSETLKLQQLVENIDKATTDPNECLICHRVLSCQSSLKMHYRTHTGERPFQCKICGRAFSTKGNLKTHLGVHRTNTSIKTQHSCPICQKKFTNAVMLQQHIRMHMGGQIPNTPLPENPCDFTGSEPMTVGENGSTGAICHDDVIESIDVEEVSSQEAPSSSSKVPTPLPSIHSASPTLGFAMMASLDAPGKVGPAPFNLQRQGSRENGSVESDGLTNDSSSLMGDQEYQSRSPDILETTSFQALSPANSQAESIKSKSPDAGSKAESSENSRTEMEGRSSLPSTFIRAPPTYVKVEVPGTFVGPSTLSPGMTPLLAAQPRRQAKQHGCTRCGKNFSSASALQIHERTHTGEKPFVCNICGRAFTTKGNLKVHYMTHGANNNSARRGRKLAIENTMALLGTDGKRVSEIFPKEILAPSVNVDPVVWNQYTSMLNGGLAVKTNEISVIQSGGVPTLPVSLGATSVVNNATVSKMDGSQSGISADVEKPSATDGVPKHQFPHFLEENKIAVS
T2 sequence (Q96SW2 whole entry): as the sequence (Q96SW2 whole entry) above
T2 sequence (Q16531 whole entry partner): as the sequence (Q16531 whole entry partner) above

- AUC(0-t) [1, 4]: 73600 ng·h/mL
- Cmax [1, 4]: 4390 ng/mL
- half-life [1, 4]: 8.3 h
- DC50 (HiBiT-tagged IKZF1 [2]; [5]): ~0.4 nM
- Dmax (HiBiT-tagged IKZF1 [2]; [5]): ~77%
- DC50 (HiBiT-tagged IKZF1 [2]; after 4 hours of incubation): < 0.2 nM
- Dmax (HiBiT-tagged IKZF1 [2]; after 4 hours of incubation): 92%
- Dmax (HiBiT-tagged IKZF1 [3]; [6]): 90.9%
- Dmax (HiBiT-tagged IKZF1 [3]; [7]): 93.8%
- DC50 (HiBiT-tagged IKZF1 [3]; [8]): 0.134 nM
- DC50 (HiBiT-tagged IKZF1 [3]; [9]): 0.102 nM
- IC50 (MM.1S cells; [10]): 0.022 nM
- Dmax (HiBiT-tagged SALL4; [6]): 59.5%
- Dmax (HiBiT-tagged SALL4; [7]): 59.4%
- DC50 (HiBiT-tagged SALL4; [8]): 104 nM
- DC50 (HiBiT-tagged SALL4; [9]): 102 nM
SMILES: N#Cc1ccc(N2CCN(Cc3ccc(Cc4ccc5c6c(cc(F)cc46)C(=O)N5[C@H]4CCC(=O)NC4=O)cc3)CC2)c(F)c1 (single isomer, unassigned) [Compound 9-B]
- Ymin (MM.1S cells): 5.6 (n = 3) %

- Dmax (HiBiT-tagged IKZF1 [3]; [11]): 79.5%
- IC50 (MM.1S cells; 120 h): > 30 nM
- Dmax (HiBiT-tagged SALL4; [11]): 69.7%
SMILES: Nc1cccc2c1C(=O)N(C1CCC(=O)NC1=O)C2=O (stereo not drawn) [Pomalidomide]

- F ([1]; Table 4, PO (10 mg/kg) vs IV (2 mg/kg)): 27.1%
- AUC(0-t) ([1]; mouse, IV (2 mg/kg), plasma): 17200 ng·h/mL
- clearance ([1]; mouse, IV (2 mg/kg), plasma): 1.57 mL/min/kg
- half-life ([1]; mouse, IV (2 mg/kg), plasma): 10.2 h
- Vd ([1]; mouse, IV (2 mg/kg), plasma, read-out: Vss): 1.32 L/kg
- AUC(0-t) [1, 12]: 23300 ng·h/mL
- Cmax [1, 12]: 1460 ng/mL
- Dmax (HiBiT-tagged IKZF1 [3]; [6]): 91.6%
- DC50 (HiBiT-tagged IKZF1 [3]; [8]): 0.074 nM
- IC50 (MM.1S cells; [10]): 0.04 nM
- Dmax (HiBiT-tagged SALL4; [6]): 58.1%
- DC50 (HiBiT-tagged SALL4; [8]): 32 nM
SMILES: N#Cc1ccc(N2CCN(Cc3ccc(Cc4ccc5c6c(cc(F)cc46)C(=O)N5C4CCC(=O)NC4=O)cc3)CC2)c(F)c1 (stereo not drawn) [Compound 9]
- Ymin (MM.1S cells): 4.0 (n = 2) %
